Measured values as given in paper PMC11423540, “Synthesis and biological evaluation of ortho-phenyl phenylhydroxamic acids containing phenothiazine with improved selectivity for class IIa histone deacetylases” (Journal of Enzyme Inhibition and Medicinal Chemistry, 2024).

Columns and labels:
SCC2095 cells = assay: Annexin V-FITC/PI flow cytometric apoptosis analysis; type: cell-based, human; details: for apoptosis rate: 48 h
Method: Cells (2 × 10^5) were treated with tested compounds in 6-well plates for 24 h or 48 h, then washed with ice-cold PBS twice and harvested with trypsin. Cells were incubated with 5 µL Annexin V- FITC/PI (BD Pharmingen, San Diego) for 15 min in the dark condition. Then, the cells were measured by BD FACSCanto flow cytometer (BD, Franklin Lakes, NJ). For ROS determination, DMSO or H2O2 or compound 7 g-treated cells were stained with the ROS probe (DCFH-DA; 5 µM) and detected the DCFH-DA fluorescence.

SCM-1 cells = assay: Cell viability (MTT) assay, SCM-1; type: cell-based; details: human gastric cancer cells, read-out: IC50 of cytotoxicity SCM-1
Source text: Human breast cancer MDA-MB-231 cells and gastric cancer SCM-1 cells were purchased from the American Type Culture Collection (Manasas, VA, USA). SCC2095 human oral cancer cells were kindly provided by Professor Susan R. Mallery (The Ohio State University). Normal human lung fibroblasts (NHLFs; CC-2512) were purchased from the Lonza (Walkersville, MD, USA). SCM-1 cells were maintained in RPMI-1640 medium (Invitrogen, Carlsbad, CA, USA); MDA-MB-231 and SCC2095 cells were maintained in DMEM/F12 (Invitrogen); and NHLFs were maintained in FGM™-2 medium (Lonza) with 2% serum, supplemented with 10% heat-inactivated foetal bovine serum (FBS; Gibco, Grand Island, NY, USA). All cells were cultured at 37 °C in a humidified incubator containing 5% CO2 and 95% relative humidity.
To assess cell viability, cells were seeded in three replicates into 96-well plates at a density of 5×10^3/well for 24 h following incubation with compounds at the indicated concentrations. Then, cell viability was assessed with 3–(4,5-dimethylthiazol-2-yl)-2,5-diphenyltetrazolium bromide (MTT) solution (0.5 mg/mL) for 4h as described previously. After removing the medium, 200 µL of DMSO was added, and then the absorbance was measured at 570 nm using a plate reader (BMG LABTECH, Germany).

HDAC9 = HDAC9 (Homo sapiens, UniProt Q9UKV0); assay: HDAC inhibition assay, HDAC9
HDAC9, sequence (Q9UKV0 whole entry): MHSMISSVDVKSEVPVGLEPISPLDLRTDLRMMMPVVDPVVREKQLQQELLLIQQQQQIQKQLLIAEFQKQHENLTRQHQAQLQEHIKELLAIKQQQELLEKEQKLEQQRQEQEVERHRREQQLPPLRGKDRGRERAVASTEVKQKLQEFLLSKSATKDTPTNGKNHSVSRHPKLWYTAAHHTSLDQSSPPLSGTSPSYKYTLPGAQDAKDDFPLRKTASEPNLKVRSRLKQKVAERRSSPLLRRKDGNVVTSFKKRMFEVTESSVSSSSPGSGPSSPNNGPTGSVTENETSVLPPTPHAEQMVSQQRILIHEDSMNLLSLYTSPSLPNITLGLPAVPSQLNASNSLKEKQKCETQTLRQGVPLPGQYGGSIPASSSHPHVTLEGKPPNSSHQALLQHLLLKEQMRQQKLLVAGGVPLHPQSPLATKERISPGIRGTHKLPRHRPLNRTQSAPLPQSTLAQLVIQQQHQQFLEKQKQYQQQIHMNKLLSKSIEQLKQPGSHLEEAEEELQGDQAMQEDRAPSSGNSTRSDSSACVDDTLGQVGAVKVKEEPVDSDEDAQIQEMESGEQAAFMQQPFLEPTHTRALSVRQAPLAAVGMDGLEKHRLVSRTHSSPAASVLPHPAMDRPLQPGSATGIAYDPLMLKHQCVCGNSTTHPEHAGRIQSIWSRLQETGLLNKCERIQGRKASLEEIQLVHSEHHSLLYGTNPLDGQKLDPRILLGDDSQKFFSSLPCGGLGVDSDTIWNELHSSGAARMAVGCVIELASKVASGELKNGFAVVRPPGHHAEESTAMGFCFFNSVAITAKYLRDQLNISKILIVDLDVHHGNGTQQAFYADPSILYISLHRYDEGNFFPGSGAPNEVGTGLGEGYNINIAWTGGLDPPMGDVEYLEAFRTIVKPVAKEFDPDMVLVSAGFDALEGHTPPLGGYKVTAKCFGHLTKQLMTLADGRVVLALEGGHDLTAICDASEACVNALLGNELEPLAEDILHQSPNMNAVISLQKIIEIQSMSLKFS

NC(=NO)c1ccc2c(c1)N(Cc1ccc(C(=O)NO)c(-c3ccccc3)c1)c1ccccc1S2 [Compound 7g, N-Hydroxy-4-[2-(N’-hydroxycarbamimidoyl)-10H-phenothiazin-10-yl]methyl-2-phenylbenzamide] was tested, and the apoptosis rate (SCC2095 cells; 1 µM) was 29.2%, the apoptosis rate (SCC2095 cells; 2.5 µM) was 35.9% and the apoptosis rate (SCC2095 cells; 5 µM) was 44.4%. For the same compound, the apoptosis rate (SCC2095 cells; 7.5 µM) was 78.2%, the “percentage of apoptotic cells” value (SCC2095 cells; 10 µM, 24 h) was 83.6% and the apoptosis rate (SCC2095 cells; 10 µM) was 87.1%. It also gave an IC50 (SCM-1 cells) of 5.8 ± 0.3 µM and an IC50 (HDAC9) of 40 ± 1 nM.
